Experimental findings from patent US20260365653A1, “IRREVERSIBLE MUTEGFR INHIBITORS” (Bayer Aktiengesellschaft, priority 2022, published 2026) are described below.

Experiment [1] has as its system BA/F3 (insSVD) cells. Kind of experiment: Ba/F3-EGFR-insSVD cell survival assay (Cell Titer-Glo). It counts as cell-based. As to conditions: Mus musculus, BaF3, 48 h, Table 3a, cell survival, Cell Titer-Glo, with 10 ng/ml EGF, without IL-3. The essentials: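 Ba/F3 cells stably expressing retroviral EGFR-insSVD or insSVD T790M, grown without IL-3 on 10 ng/ml EGF, 4000 cells/well. Compound pinned in, 48 h at 37° C. Viability by CellTiter-Glo luminescence.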

For experiment [2], the target named is T1, mutEGFR (D770_N771insSVD) (Homo sapiens, UniProt P00533, DUP768-770).
T1 construct: GST-EGFR #3 (SVD between D770 and N771); made in house; host or cells: Sf9 insect cells (baculovirus)
T1 sequence (P00533 with tags, fused parts or gaps DUP768-770): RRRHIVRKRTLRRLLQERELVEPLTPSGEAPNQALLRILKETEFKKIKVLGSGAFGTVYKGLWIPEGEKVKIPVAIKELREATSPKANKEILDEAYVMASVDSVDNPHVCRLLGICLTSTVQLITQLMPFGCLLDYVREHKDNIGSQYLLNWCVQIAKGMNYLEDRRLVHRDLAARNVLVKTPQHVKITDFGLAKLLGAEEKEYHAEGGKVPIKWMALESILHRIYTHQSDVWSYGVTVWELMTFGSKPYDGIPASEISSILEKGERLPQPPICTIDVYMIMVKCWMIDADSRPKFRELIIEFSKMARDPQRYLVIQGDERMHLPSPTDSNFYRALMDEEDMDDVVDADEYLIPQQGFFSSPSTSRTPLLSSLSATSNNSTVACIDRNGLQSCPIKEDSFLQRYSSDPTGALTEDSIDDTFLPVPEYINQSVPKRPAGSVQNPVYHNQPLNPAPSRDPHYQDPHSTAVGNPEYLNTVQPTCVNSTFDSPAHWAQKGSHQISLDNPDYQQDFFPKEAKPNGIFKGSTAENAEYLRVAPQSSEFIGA
Kind of experiment: Exon20-Mutant-EGFR (D770_N771insSVD) kinase assay (TR-FRET). It counts as biochemical. The settings on record: mutEGFR (D770_N771insSVD) kinase assay IC50, Table 2a; D770_N771insSVD; 2 mM ATP. Background: TR-FRET usually uses a lanthanide donor and a delayed reading to cut background.

For experiment [3], the target named is T2, mutEGFR (D770_N771insNPG, T790) (Homo sapiens, UniProt P00533, INS770NPG/T790M).
T2 construct: exact insNPG construct not described; in-house EGFR proteins were N-terminal GST fusions from baculovirus/insect cells (borders R669-A1210 given only for WT, insSVD, insASV)
T2 sequence (P00533 with tags, fused parts or gaps INS770NPG/T790M limits assumed): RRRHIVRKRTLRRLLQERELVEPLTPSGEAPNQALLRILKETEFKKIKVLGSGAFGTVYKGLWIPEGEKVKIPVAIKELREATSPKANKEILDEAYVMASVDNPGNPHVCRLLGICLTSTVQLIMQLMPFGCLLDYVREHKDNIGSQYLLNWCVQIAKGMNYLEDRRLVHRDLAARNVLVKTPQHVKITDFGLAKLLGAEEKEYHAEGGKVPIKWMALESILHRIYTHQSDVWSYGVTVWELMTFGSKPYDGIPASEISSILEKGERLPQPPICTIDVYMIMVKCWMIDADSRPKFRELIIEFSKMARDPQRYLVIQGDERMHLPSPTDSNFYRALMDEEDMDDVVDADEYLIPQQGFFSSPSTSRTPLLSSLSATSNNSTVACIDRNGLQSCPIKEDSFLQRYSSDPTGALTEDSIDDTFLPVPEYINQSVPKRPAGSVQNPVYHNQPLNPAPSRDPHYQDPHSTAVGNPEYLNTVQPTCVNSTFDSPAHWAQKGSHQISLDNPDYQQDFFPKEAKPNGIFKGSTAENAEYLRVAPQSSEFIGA
Kind of experiment: mutEGFR (D770_N771insNPG, T790) kinase assay. Type of experiment: biochemical. The settings on record: Table 2a, D770_N771insNPG. The text has this: The different EGFR proteins used in the biochemical kinase activity inhibition assays were generated inhouse by expression in insect cells using Baculo Virus system and subsequent purification as described in the following paragraphs.
The cDNAs encoding the various protein sequences from human EGFR human (P00533) were optimized for expression in eukaryotic cells and synthesized by the GeneArt Technology at Life Technologies.

SMILES strings stand for the structures.

Take `C#Cc1ccc(-c2nn3c(c2-c2ccncc2)CN(C(=O)/C=C/CN(C)C)CC3)cc1` [Example 146, (2E)-4-(dimethylamino)-1-[2-(4-ethynylphenyl)-3-(pyridin-4-yl)-6,7-dihydropyrazolo[1,5-a]pyrazin-5(4H)-yl]but-2-en-1-one]: the figures for the IC50 in experiment [1], in experiment [2] and in experiment [3] were 4680 nM, 680 nM and 1170 nM, respectively.
On the same counts, the results for `CCOc1ccc(-c2nn3c(c2-c2ccncc2)CN(C(=O)/C=C/CN(C)C)CC3)cc1` [Example 147, (2E)-4-(dimethylamino)-1-[2-(4-ethoxyphenyl)-3-(pyridin-4-yl)-6,7-dihydropyrazolo[1,5-a]pyrazin-5(4H)-yl]but-2-en-1-one] are 2940 nM, 36 nM and 201 nM.
Taken in the same sequence, the figures for `CN(C)C/C=C/C(=O)N1CCn2nc(-c3ccc(C(F)F)cc3)c(-c3ccncc3)c2C1` [Example 148, (2E)-1-{2-[4-(difluoromethyl)phenyl]-3-(pyridin-4-yl)-6,7-dihydropyrazolo[1,5-a]pyrazin-5(4H)-yl}-4-(dimethylamino)but-2-en-1-one] were 387 nM, 1.91 nM and 9.1 nM.
Taken in the same sequence, the figures for `CN(C)C/C=C/C(=O)N1CCn2nc(-c3cc(Cl)ccc3F)c(-c3ccncc3)c2C1` [Example 149, (2E)-1-[2-(5-chloro-2-fluorophenyl)-3-(pyridin-4-yl)-6,7-dihydropyrazolo[1,5-a]pyrazin-5(4H)-yl]-4-(dimethylamino)but-2-en-1-one] were 200 nM, 1.54 nM and 2.59 nM.
For `CN(C)C/C=C/C(=O)N1CCn2nc(-c3cccc(Cl)c3)c(-c3ccncc3)c2C1` [Example 150, (2E)-1-[2-(3-chlorophenyl)-3-(pyridin-4-yl)-6,7-dihydropyrazolo[1,5-a]pyrazin-5(4H)-yl]-4-(dimethylamino)but-2-en-1-one], the IC50 in experiment [1] was 54.3 nM; in experiment [2], 0.764 nM; in experiment [3] it was 1.05 nM.
Taken in the same sequence, the figures for `CN(C)C/C=C/C(=O)N1CCn2nc(-c3ccc(C(F)(F)F)c(F)c3)c(-c3ccncc3)c2C1` [Example 151, (2E)-4-(dimethylamino)-1-{2-[3-fluoro-4-(trifluoromethyl)phenyl]-3-(pyridin-4-yl)-6,7-dihydropyrazolo[1,5-a]pyrazin-5(4H)-yl}but-2-en-1-one] were 405 nM, 3.2 nM and 12.1 nM.
On the same counts, the results for `CN(C)C/C=C/C(=O)N1CCn2nc(-c3ccc(C(F)(F)F)cc3F)c(-c3ccncc3)c2C1` [Example 152, (2E)-4-(dimethylamino)-1-{2-[2-fluoro-4-(trifluoromethyl)phenyl]-3-(pyridin-4-yl)-6,7-dihydropyrazolo[1,5-a]pyrazin-5(4H)-yl}but-2-en-1-one] are 257 nM, 1.05 nM and 4.55 nM.
Take `CN(C)C/C=C/C(=O)N1CCn2nc(-c3ccccc3F)c(-c3ccncc3)c2C1` [Example 153, (2E)-4-(dimethylamino)-1-[2-(2-fluorophenyl)-3-(pyridin-4-yl)-6,7-dihydropyrazolo[1,5-a]pyrazin-5(4H)-yl]but-2-en-1-one]: the IC50 turned out to be 557 nM in experiment [1], 2.29 nM in experiment [2] and 9.91 nM in experiment [3].
On the same counts, the results for `CN(C)C/C=C/C(=O)N1CCn2nc(-c3ccccc3Cl)c(-c3ccncc3)c2C1` [Example 154, (2E)-1-[2-(2-chlorophenyl)-3-(pyridin-4-yl)-6,7-dihydropyrazolo[1,5-a]pyrazin-5(4H)-yl]-4-(dimethylamino)but-2-en-1-one] are 2850 nM, 3.48 nM and 27.5 nM.
On the same counts, the results for `COc1cccc(-c2nn3c(c2-c2ccncc2)CN(C(=O)/C=C/CN(C)C)CC3)c1` [Example 155, (2E)-4-(dimethylamino)-1-[2-(3-methoxyphenyl)-3-(pyridin-4-yl)-6,7-dihydropyrazolo[1,5-a]pyrazin-5(4H)-yl]but-2-en-1-one] are 1050 nM, 6.43 nM and 5.24 nM.
On the same counts, the results for `Cc1ccc(-c2nn3c(c2-c2ccncc2)CN(C(=O)/C=C/CN(C)C)CC3)cc1` [Example 156, (2E)-4-(dimethylamino)-1-[2-(4-methylphenyl)-3-(pyridin-4-yl)-6,7-dihydropyrazolo[1,5-a]pyrazin-5(4H)-yl]but-2-en-1-one] are 98.2 nM, 1.45 nM and 4.64 nM.
With `Cc1cccc(-c2nn3c(c2-c2ccncc2)CN(C(=O)/C=C/CN(C)C)CC3)c1` [Example 157, (2E)-4-(dimethylamino)-1-[2-(3-methylphenyl)-3-(pyridin-4-yl)-6,7-dihydropyrazolo[1,5-a]pyrazin-5(4H)-yl]but-2-en-1-one], the results for the half-inhibitory concentration (IC50) in experiment [1], in experiment [2] and in experiment [3] were 117 nM, 1 nM and 1.77 nM, respectively.
On the same counts, the results for `CCc1ccc(-c2nn3c(c2-c2ccncc2)CN(C(=O)/C=C/CN(C)C)CC3)cc1` [Example 158, (2E)-4-(dimethylamino)-1-[2-(4-ethylphenyl)-3-(pyridin-4-yl)-6,7-dihydropyrazolo[1,5-a]pyrazin-5(4H)-yl]but-2-en-1-one] are 482 nM, 5.01 nM and 16.4 nM.
Taken in the same sequence, the figures for `CN(C)C/C=C/C(=O)N1CCn2nc(-c3cccc(C#N)c3)c(-c3ccncc3)c2C1` [Example 159, 3-{5-[(2E)-4-(dimethylamino)but-2-enoyl]-3-(pyridin-4-yl)-4,5,6,7-tetrahydropyrazolo[1,5-a]pyrazin-2-yl}benzonitrile] were 764 nM, 83.1 nM and 38.7 nM.
With `COc1ccc(-c2nn3c(c2-c2ccncc2)CN(C(=O)/C=C/CN(C)C)CC3)c(F)c1` [Example 160, (2E)-4-(dimethylamino)-1-[2-(2-fluoro-4-methoxyphenyl)-3-(pyridin-4-yl)-6,7-dihydropyrazolo[1,5-a]pyrazin-5(4H)-yl]but-2-en-1-one], the results for the IC50 in experiment [1], in experiment [2] and in experiment [3] were 973 nM, 1.48 nM and 6.58 nM, respectively.
On the same counts, the results for `CN(C)C/C=C/C(=O)N1CCn2nc(-c3ccc(SC(F)(F)F)cc3)c(-c3ccncc3)c2C1` [Example 161, (2E)-4-(dimethylamino)-1-[3-(pyridin-4-yl)-2-{4-[(trifluoromethyl)sulfanyl]phenyl}-6,7-dihydropyrazolo[1,5-a]pyrazin-5(4H)-yl]but-2-en-1-one] are 1990 nM, 92.9 nM and 629 nM.
`O=C(/C=C/CN1CCC1)N1CCn2nc(-c3ccc(Cl)cc3)c(-c3ccncc3)c2C1` [Example 162, (2E)-4-(azetidin-1-yl)-1-[2-(4-chlorophenyl)-3-(pyridin-4-yl)-6,7-dihydropyrazolo[1,5-a]pyrazin-5(4H)-yl]but-2-en-1-one]: the IC50 is 43.8 nM in experiment [1], 0.507 nM in experiment [2] and 2.32 nM in experiment [3].
Turning to `O=C(/C=C/CN1CCCCC1)N1CCn2nc(-c3ccc(Cl)cc3)c(-c3ccncc3)c2C1` [Example 163, (2E)-1-[2-(4-chlorophenyl)-3-(pyridin-4-yl)-6,7-dihydropyrazolo[1,5-a]pyrazin-5(4H)-yl]-4-(piperidin-1-yl) but-2-en-1-one], the concentration for half-maximal inhibition (IC50) in experiment [1] is 47.4 nM; in experiment [2] it was 0.16 nM; in experiment [3], 0.619 nM.
With `CN1CCN(C/C=C/C(=O)N2CCn3nc(-c4ccc(Cl)cc4)c(-c4ccncc4)c3C2)CC1` [Example 164, (2E)-1-[2-(4-chlorophenyl)-3-(pyridin-4-yl)-6,7-dihydropyrazolo[1,5-a]pyrazin-5(4H)-yl]-4-(4-methylpiperazin-1-yl) but-2-en-1-one], the IC50 in experiment [1] amounted to 155 nM; in experiment [2], 2.99 nM; in experiment [3], 9.37 nM.
Consider `O=C(/C=C/CN1CCOCC1)N1CCn2nc(-c3ccc(Cl)cc3)c(-c3ccncc3)c2C1` [Example 165, (E)-1-(2-(4-chlorophenyl)-3-(pyridin-4-yl)-6,7-dihydropyrazolo[1,5-a]pyrazin-5(4H)-yl)-4-morpholinobut-2-en-1-one], for which the figures for the 50% inhibitory concentration (IC50) in experiment [1], in experiment [2] and in experiment [3] were 107 nM, 0.631 nM and 2.43 nM, respectively.
Taken in the same sequence, the figures for `CC(C)N(C)C/C=C/C(=O)N1CCn2nc(-c3ccc(Cl)cc3)c(-c3ccncc3)c2C1` [Example 166, (2E)-1-[2-(4-chlorophenyl)-3-(pyridin-4-yl)-6,7-dihydropyrazolo[1,5-a]pyrazin-5(4H)-yl]-4-[isopropyl(methyl)amino]but-2-en-1-one] were 78.1 nM, 0.169 nM and 0.338 nM.
Taken in the same sequence, the figures for `CC(C)(C)NC/C=C/C(=O)N1CCn2nc(-c3ccc(Cl)cc3)c(-c3ccncc3)c2C1` [Example 167, (2E)-4-(tert-butylamino)-1-[2-(4-chlorophenyl)-3-(pyridin-4-yl)-6,7-dihydropyrazolo[1,5-a]pyrazin-5(4H)-yl]but-2-en-1-one] were 35.2 nM, 0.256 nM and 1.02 nM.

What is called IC50 is the midpoint of a concentration-inhibition curve. High values mean lower potency, low ones higher potency.
